{
  "source": "patent US20050159390A1",
  "about": "“Treatment and prevention of HIV and other viral infections” (priority 1998, published 2005)",
  "key": {"[1]": {"tested_on": "HIV-1III B", "test": "HIV-1 P24 output in activated human PBMCs, test solution mixed with virus overnight, day 9", "type": "cell-based", "details": "for inhibition at 5000 µg/mL (stock): Human immunodeficiency virus 1, PBMC, 216 h, read-out: Inhibition % of the control (P24 output)", "experimental": "Research Grade Purified d-Galactose (CAT# g404, lot 117H00431, FW 180.2, Sigma Chemical Co., St. Louis, Mo.) was dissolved in saline at a concentration of 5 mg/ml. The solution was allowed to stand at room temperature for 15 minutes and mixed by vortex until the galactose was completely dissolved. The galactose solution was divided into two equal aliquots. Stabilizing solution (0.1 ml) was added to one aliquot, then vortexed and incubated at room temperature for 30 minutes. After mixing again, the mixture was centrifuged at 1500 g for 30 minutes and the supernatant was filtered through a 0.2 μm filter and transferred to a sterile 15 ml tube. The solution was sterilized by gamma radiation (2.5 mega RADs) with 15 minutes exposure. The aliquot without the stabilizing solution was labeled “1A” and the aliquot containing the stabilized solution was labeled “1B”. […] […] Control solutions were water.\nOne ml of each of the dilutions of the test solution or control was mixed with an equal volume of HIV-1III B (˜50 TCID50/2×10^5 cells) to infect activated human PBMCs overnight at 37° C. (3×10^5 cells/dilution). HIV-1III B is a laboratory-adapted strain. The cells then were washed and placed in culture media containing the indicated dilution of the test solution in triplicate wells ([…], ½ medium changes with media containing the indicated dilutions of test solution were made at ˜3 day intervals). The conditioned media were tested for HIV-1 P24 output on day 9 using the DuPont P24 assay kit. The control was infected PBMCs in the absence of test solutions. Results are shown in Table 9 and are measured as the Inhibition % of the control."}, "[2]": {"tested_on": "HIV-1IIIB", "test": "CEM-SS cell-based assay, inhibition of HIV-induced cell killing (XTT)", "details": "CEM-SS cells"}, "[3]": {"tested_on": "PBMCs", "type": "cell-based, human", "experimental": "For the standard PBMC assay, PHA-P stimulated cells from at least two normal donors were pooled, diluted in fresh medium to a final concentration of 1×10^6 cells/mL, and plated in the interior wells of a 96 well round bottom microplate at 50 μL/well (5×10^4 cells/well). Test drug dilutions were prepared at a 2× concentration in microfuge tubes and 100 μL of each concentration was placed in appropriate wells in a standard format. A predetermined dilution of virus stock was placed in each test well (50 μL, final MOI≅0.1). Wells with cells and virus alone were used for virus control. Separate plates were prepared identically without virus for drug cytotoxicity studies using an XTT assay system. […]\n(§1) Tetrazolium dye staining of screening plates: After 6 days of incubation (37° C. with 5% CO2), the test plates were analyzed by staining with the tetrazolium dye XTT (2,3-b (2-methoxy-4-nitro-5-sulfophenyl)-2H-tetrazolium-5-carboxanilide). XTT-tetrazolium is metabolized by mitochondrial enzymes of metabolically active cells to a soluble formazan product, allowing the rapid quantitative analysis of the inhibition of HIV-induced cell killing by anti-HIV compounds. […] Plates were sealed with adhesive plate sealers and inverted several times to mix the soluble formazan product and the plate was read spectrophotometrically at 450 nm with a Molecular Devices Vmax plate reader. […]"}, "[4]": {"tested_on": "HIV-1RF", "test": "CEM-SS cell-based assay, inhibition of HIV-induced cell killing (XTT)", "details": "CEM-SS cells", "experimental": "(§2) Cell Preparation: Prior to infection, CEM-SS cells were grown in complete tissue culture medium (RPMI 1640 medium with 10% heat-inactivated fetal bovine serum, 2 mM L-glutamine, 100 U/mL penicillin, 100 μg/mL streptomycin, 10 μg/mL gentamycin) and transferred to T-150 flasks. On the day preceding the assay, the cells were split 1:2 to assure the cells would be in an exponential growth phase at time of infection. On the day of assay, the cells were washed twice with tissue culture medium and resuspended in fresh tissue culture medium. […]\nVirus Preparation: Pre-tittered aliquots of HIV-1ROJO and HIV-1RF were removed from the freezer (−80° C.) and thawed to room temperature in a biological safety cabinet. The virus was resuspended and diluted into tissue culture medium such that the amount of virus added to each well in a volume of 50 μL will be the amount determined to give complete cell killing at 6 days post-infection.\nTetrazolium dye staining of screening plates: After 6 days of incubation (37° C. with 5% CO2), the test plates were analyzed by staining with the tetrazolium dye XTT (2,3-b (2-methoxy-4-nitro-5-sulfophenyl)-2H-tetrazolium-5-carboxanilide). XTT-tetrazolium is metabolized by mitochondrial enzymes of metabolically active cells to a soluble formazan product, allowing the rapid quantitative analysis of the inhibition of HIV-induced cell killing by anti-HIV compounds. […]"}, "[5]": {"tested_on": "CEM-SS cells", "type": "cell-based", "experimental": "as §2\nas §1, with “reader. Indices such as % CPE Reduction (cytopathic effects), % Cell Viability, IC25, IC50, IC95, TC25, TC50, and TC95 and other indices were calculated.” for “reader.”"}, "[6]": {"tested_on": "HIV-1 IIIB", "test": "HIV-1 P24 output in activated human PBMCs, test solutions added post infection", "type": "cell-based", "details": "repeat with further dilutions; dilution 1:1000", "experimental": "In addition, a similar experiment was performed, except that test solutions were added post infection, at the time of plating into the triplicate wells."}, "[7]": {"tested_on": "X4 strain LAI/IIIB", "test": "RT activity in infected PBMCs treated with carbohydrates", "type": "cell-based, HIV", "details": "summary of Table 17", "experimental": "Reverse Transcriptase Activity Assay: A microtiter based reverse transcriptase (RT) reaction was utilized as described by Buckheit et al., (1991), AIDS Research and Human Retroviruses, 7: 295-302. Tritiated thymidine triphosphate (3H-TTP) was suspended in distilled H2O at 5 Ci/mL. Poly rA and oligo dT were prepared as a stock solution which was kept at −20° C. RT reaction buffer was prepared fresh on a daily basis and contained 125 μL 1M EGTA, 125 μL dH2O, 110 μL 10% SDS, 50 μL 1M Tris (pH 7.4), 50 μL 1M DTT, and 40 μL 1M MgCl2. These three solutions were mixed together in a ratio of 2 parts 3H-TTP, 1 part poly rA:oligo dT, and 1 part reaction buffer. Ten microliters of this reaction mixture were placed in a round bottom microtiter plate and 15 μL of virus containing supernatant were added and mixed. The plate was incubated at 37° C. in a water bath with a solid support to prevent submersion of the plate and incubated for 60 minutes. […] Opti-Fluor-O (Packard) was added to each sample and incorporated radioactivity was quantified utilizing a Wallac 1450 MicroBeta Plus liquid scintillation counter. […]\nNo carbohydrates were added to the control sample. RT activity was determined at 3, 6, 9, 13, 17, and 20 days post-infection (PI) with X4 strain LAI/IIIB."}, "[8]": {"details": "dilution 1:10 of 5 mg/ml solution"}, "[9]": {"details": "dilution 1:20 of 5 mg/ml solution"}, "[10]": {"details": "dilution 1:40 of 5 mg/ml solution"}, "[11]": {"details": "dilution 1:80 of 5 mg/ml solution"}, "[12]": {"details": "dilution 1:160 of 5 mg/ml solution"}},
  "note": "Read-outs that look alike come from different tables or passages of the source.",
  "data": [
    {"smiles": "OC[C@H]1O[C@H](O[C@H]2[C@@H](O)[C@@H](CO)OC(O)[C@@H]2O)[C@H](O)[C@@H](O)[C@H]1O", "note": "(single isomer, unassigned) [3B, galactose-α 1,3-galactose]", "values": [
      {"measurement": "Inhibition % of the control (P24 output)", "setting": "[1]; [8]", "result": 4.6, "unit": "%"},
      {"measurement": "Inhibition % of the control (P24 output)", "setting": "[1]; [9]", "result": 3.6, "unit": "%"},
      {"measurement": "Inhibition % of the control (P24 output)", "setting": "[1]; [10]", "result": 1.8, "unit": "%"},
      {"measurement": "Inhibition % of the control (P24 output)", "setting": "[1]; [11]", "result": 1.1, "unit": "%"},
      {"measurement": "Inhibition % of the control (P24 output)", "setting": "[1]; [12]", "result": 0.5, "unit": "%"}
    ]},
    {"smiles": "OC[C@H]1O[C@H](O[C@H]2[C@@H](O)[C@@H](CO)OC(O)[C@@H]2O)[C@H](O)[C@@H](O)[C@H]1O", "note": "(single isomer, unassigned) [3A, galactose-α 1,3-galactose]", "values": [
      {"measurement": "Inhibition % of the control (P24 output)", "setting": "[1]; [9]", "result": 3.6, "unit": "%"},
      {"measurement": "Inhibition % of the control (P24 output)", "setting": "[1]; [10]", "result": 2.2, "unit": "%"},
      {"measurement": "Inhibition % of the control (P24 output)", "setting": "[1]; [11]", "result": 1.4, "unit": "%"},
      {"measurement": "Inhibition % of the control (P24 output)", "setting": "[1]; [12]", "result": 0.4, "unit": "%"}
    ]},
    {"smiles": "O=C[C@H](O)[C@@H](O)[C@@H](O)[C@H](O)CO", "note": "[1A, d-Galactose]", "values": [
      {"measurement": "inhibition at 5000 µg/mL (stock)", "setting": "[1]; [8]", "result": 4, "unit": "%"},
      {"measurement": "inhibition at 5000 µg/mL (stock)", "setting": "[1]; [9]", "result": 5, "unit": "%"},
      {"measurement": "inhibition at 5000 µg/mL (stock)", "setting": "[1]; [10]", "result": 4, "unit": "%"},
      {"measurement": "inhibition at 5000 µg/mL (stock)", "setting": "[1]; [11]", "result": 2, "unit": "%"},
      {"measurement": "inhibition at 5000 µg/mL (stock)", "setting": "[1]; [12]", "result": 2, "unit": "%"}
    ]},
    {"smiles": "Cc1cn([C@H]2C[C@H](N=[N+]=[N-])[C@@H](CO)O2)c(=O)[nH]c1=O", "note": "[AZT, reference compound]", "values": [
      {"measurement": "IC50", "setting": "[2]", "result": "11 to 17", "unit": "nM"},
      {"measurement": "CC50", "setting": "[3]", "result": "> 4000", "unit": "nM"},
      {"measurement": "IC50", "setting": "[4]", "result": "5 to 7", "unit": "nM"},
      {"measurement": "CC50", "setting": "[5]", "result": "> 1000", "unit": "nM"}
    ]},
    {"smiles": "O=C(CO)N[C@H]1[C@H]([C@H](O)[C@H](O)CO)OC(O)(C(=O)O)C[C@@H]1O", "note": "(single isomer, unassigned) [2A, N-glycolylneuraminic acid]", "values": [
      {"measurement": "inhibition at 5000 µg/mL (stock)", "setting": "[1]; [9]", "result": 78, "unit": "%"},
      {"measurement": "inhibition at 5000 µg/mL (stock)", "setting": "[1]; [10]", "result": 66, "unit": "%"},
      {"measurement": "inhibition at 5000 µg/mL (stock)", "setting": "[1]; [11]", "result": 41, "unit": "%"},
      {"measurement": "inhibition at 5000 µg/mL (stock)", "setting": "[1]; [12]", "result": 19, "unit": "%"},
      {"measurement": "Inhibition % of Control (P24 output)", "setting": "[6]", "result": 7, "unit": "%"}
    ]},
    {"smiles": "CC(=O)N[C@H]1[C@H]([C@H](O)[C@H](O)CO)OC(O)(C(=O)O)C[C@@H]1O", "note": "(stereo partly shown) [N-acetylneuraminic acid, reference compound]", "values": [
      {"measurement": "RT activity in treated cells (in words)", "setting": "[7]", "result": "decreased RT activity was observed only with high concentrations"}
    ]},
    {"smiles": "O=C[C@H](O)[C@@H](O)[C@@H](O)[C@H](O)CO", "note": "[1B, d-Galactose]", "values": [
      {"measurement": "Inhibition % of the control (P24 output)", "setting": "[1]; [8]", "result": 7, "unit": "%"},
      {"measurement": "Inhibition % of the control (P24 output)", "setting": "[1]; [9]", "result": 5, "unit": "%"},
      {"measurement": "Inhibition % of the control (P24 output)", "setting": "[1]; [10]", "result": 3, "unit": "%"},
      {"measurement": "Inhibition % of the control (P24 output)", "setting": "[1]; [11]", "result": 4, "unit": "%"},
      {"measurement": "Inhibition % of the control (P24 output)", "setting": "[1]; [12]", "result": 2, "unit": "%"}
    ]},
    {"smiles": "O=C(CO)N[C@H]1[C@H]([C@H](O)[C@H](O)CO)OC(O)(C(=O)O)C[C@@H]1O", "note": "(single isomer, unassigned) [2B, N-glycolylneuraminic acid]", "values": [
      {"measurement": "Inhibition % of the control (P24 output)", "setting": "[1]; [10]", "result": 61, "unit": "%"},
      {"measurement": "Inhibition % of Control (P24 output)", "setting": "[6]", "result": 1, "unit": "%"}
    ]}
  ]
}
